Assay [1] concerns Glomerella lagenarium syn. Colletotrichum lagenarium. Briefly: Example C4: mixtures against Glomerella lagenarium syn. Colletotrichum lagenarium (anthracnose), liquid culture. The class given is cell-based. The conditions noted are these: single component. The source says:
(§1) Certain mixture compositions comprising a compound of formula (I) described above may show a synergistic effect. This occurs whenever the action of an active ingredient combination is greater than the sum of the actions of the individual components. The action to be expected E for a given active ingredient combination obeys the so-called COLBY formula and can be calculated as follows (COLBY, S. R. “Calculating synergistic and antagonistic responses of herbicide combination”. Weeds, Vol. 15, pages 20-22; 1967): • ppm=milligrams of active ingredient (=a.i.) per liter of spray mixture • X=% action by active ingredient A) using p ppm of active ingredient • Y=% action by active ingredient B) using q ppm of active ingredient.
(§2) According to COLBY, the expected (additive) action of active ingredients A)+B) using p+q ppm of active ingredient is:
(§3) If the action actually observed (O) is greater than the expected action (E), then the action of the combination is super-additive, i.e. there is a synergistic effect. In mathematical terms, synergism corresponds to a positive value for the difference of (O-E). In the case of purely complementary addition of activities (expected activity), said difference (O-E) is zero. A negative value of said difference (O-E) signals a loss of activity compared to the expected activity.
(§4) Mycelia fragments or conidia suspensions of a fungus prepared either freshly from liquid cultures of the fungus or from cryogenic storage, are directly mixed into nutrient broth. DMSO solutions of the test compound (max. 10 mg/mL) are diluted with 0.025% Tween20 by a factor of 50 and 10 μl of this solution is pipetted into a microtiter plate (96-well format). The nutrient broth containing the fungal spores/mycelia fragments is then added to give an end concentration of the tested compound. The test plates are incubated in the dark at 24° C. and 96% relative humidity. The inhibition of fungal growth is determined photometrically after 2 to 7 days, depending on the pathosystem, and percent antifungal activity relative to the untreated check is calculated.
(§5) Conidia of the fungus from cryogenic storage were directly mixed into nutrient broth (PDB potato dextrose broth). A DMSO solution of the test compounds was placed into a microtiter plate (96-well format) and the nutrient broth containing the fungal spores was added to it.
The following mixture compositions at the reported concentration (in ppm) in tables C4-3 and C4-4 gave the following disease control in this test (Glomerella lagenarium syn. Colletotrichum lagenarium). Fungicidal activity was evaluated on a 100-0 scale (100=no disease growth; 0=well completely covered by mycelium).

Assay [2] concerns Mycosphaerella arachidis syn. Cercospora arachidicola. Briefly: Example C1: mixtures against Mycosphaerella arachidis syn. Cercospora arachidicola (brown leaf spot), liquid culture. The class given is cell-based. To be noted: single component, 100-0 scale (100=no disease growth).
Text: as §1, §2, §3, §4, §5
The following mixture compositions at the reported concentration (in ppm) in tables C1-3 and C1-4 gave the following disease control in this test Mycosphaerella arachidis syn. Cercospora arachidicola (Brown leaf spot of peanut). Fungicidal activity was evaluated on a 100-0 scale (100=no disease growth; 0=well completely covered by mycelium).

In assay [3] the test system is Corynespora cassiicola. Briefly: Example C5: mixtures against Corynespora cassiicola (target leaf spot), liquid culture. To be noted: single component. The assay is classed as cell-based.
Text: as §1, §2, §3, §4
Conidia of the fungus from cryogenic storage were directly mixed into nutrient broth (PDB potato dextrose broth). A DMSO solution of the test compounds was placed into a microtiter plate (96-well format) and the nutrient broth containing the fungal spores was added to it. The test plates were incubated at 24 C and the inhibition of growth was determined photometrically after 3-4 days at 620 nm.
The following mixture compositions at the reported concentration (in ppm) in tables C4-3 and C4-4 gave the following disease control in this test (Corynespora cassiicola). Fungicidal activity was evaluated on a 100-0 scale (100=no disease growth; 0=well completely covered by mycelium).

Assay [4] relates to Septoria tritici. Briefly: Example C2: mixtures against Septoria tritici (leaf blotch), liquid culture. The assay is classed as cell-based. To be noted: single component; for inhibition at 0.1 ppm: 100-0 scale (100=no disease growth).
Text: as §1, §2, §3, §4, §5
The following mixture compositions at the reported concentration (in ppm) in tables C2-3 to C2-5 gave the following disease control in this test Septoria tritici (leaf blotch). Fungicidal activity was evaluated on a 100-0 scale (100=no disease growth; 0=well completely covered by mycelium).

The subject of assay [5] is Puccinia recondita (Brown rust). Briefly: Example B: comparative biological activity against Puccinia recondita (brown rust), curative, wheat leaf segments. The class given is in vivo. The conditions noted are these: 8 dpi. On the procedure:
Method; Wheat leaf segments are placed on agar in multiwell plates (24-well format). The leaf segments are inoculated with a spore suspension of the fungus and sprayed with test solutions 1 day after inoculation. After appropriate incubation the activity of a compound is assessed 8 dpi (days after inoculation) as curative fungicidal activity.
The data are presented as the percentage of disease control of each compound for the biological tests and testing rates described below in table B1.

The subject of assay [6] is Septoria glycines. Briefly: Example C3: mixtures against Septoria glycines (brown spot), liquid culture. The assay is classed as cell-based. The conditions noted are these: single component.
Text: This occurs whenever the action of an active ingredient combination is greater than the sum of the actions of the individual components. The action to be expected E for a given active ingredient combination obeys the so-called COLBY formula and can be calculated as follows (COLBY, S. R. “Calculating synergistic and antagonistic responses of herbicide combination”. Weeds, Vol. 15, pages 20-22; 1967): • ppm=milligrams of active ingredient (=a.i.) per liter of spray mixture • X=% action by active ingredient A) using p ppm of active ingredient • Y=% action by active ingredient B) using q ppm of active ingredient.
as §2, §3
as §4, with “The nutrient broth containing the fungal spores/mycelia fragments is then added to give an end concentration of the tested compound.” left out
Conidia of the fungus harvested from a fresh culture grown on artificial media, were directly mixed into nutrient broth (PDB potato dextrose broth). A DMSO solution of the test compounds was placed into a microtiter plate (96-well format) and the nutrient broth containing the fungal spores was added to it.
Fungicidal activity was evaluated on a 100-0 scale (100=no disease growth; 0=well completely covered by mycelium).

Assay [7] concerns Phakopsora pachyrhizi. Briefly: Example D: preventative activity against Phakopsora pachyrhizi on soybean (whole plants sprayed, leaf disks inoculated). The assay is classed as in vivo.
Text: as §1, §2, §3
Whole soybean plants are treated with the recited active ingredients 4 weeks after planting. 1 day after spraying leaf disks are cut from the first trifoliate leaf. Five repetitions at each rate are conducted. The leaf disks are inoculated with Phakopsora pachyrhizi (Asian soybean rust) one day after treatment. Evaluation of the leaf disks is conducted 11 to 14 days after inoculation and the activity is derived from the relation of the treated vs untreated, infested check. (100=no disease, no damage to the leaf, 0=high infestation, leaf damaged heavily). The rates of the active ingredients used are given in the tables as g active ingredient (a.i.)/ha.

The mark [8] stands for this setting: Zymoseptoria tritici, 100-0 scale.

Where “and” joins values, the source holds several entries; their conditions need not be identical. Equal values may be shown once. Read-outs that look alike come from different tables or passages of the source.

Take `CO/C=C(\Oc1cc(C2CCCC2)ccc1C)C(=O)OC` [Compound X.02, methyl (Z)-2-(5-cyclopentyl-2-methyl-phenoxy)-3-methoxy-prop-2-enoate]: the inhibition at 0.03 ppm in assay [1] (Colletotrichum orbiculare) stood at 0%; in assay [2] (Mycosphaerella arachidis), 50%; in assay [4] (setting [8]), 0%; in assay [6] (Septoria glycines, 100-0 scale (100=no disease growth)), 50%. The inhibition at 0.1 ppm in assay [1] (Colletotrichum orbiculare, 0.1 ppm) is 20%; in assay [4] (Zymoseptoria tritici), 70%; in assay [6] (Septoria glycines, 0.1 ppm, 100-0 scale (100=no disease growth), read-out: Activity (%)) it was 70%. The inhibition at 0.03125 ppm in assay [2] (Mycosphaerella arachidis, 0.03125 ppm) was 70%; in assay [4] (Zymoseptoria tritici, 0.03125 ppm, 100-0 scale), 20%; in assay [6] (Septoria glycines, 0.03125 ppm), 70%. In addition, the inhibition at 1 ppm in assay [3] (Corynespora cassiicola, 1 ppm) was found to be 20%. In addition, the inhibition at 0.0625 ppm in assay [4] (Zymoseptoria tritici, 0.0625 ppm, 100-0 scale) came out at 90%. Also, the “control (%)” value was 0% in assay [5] (20 ppm), 0% in assay [5] (60 ppm) and 100% in assay [5] (200 ppm). The inhibition at 2.25 g/ha amounted to 13% in assay [7] (Phakopsora pachyrhizi, foliar, applied alone, 2.25 g/ha, read-out: Observed Activity (% of untreated)); 14% in assay [7] (Phakopsora pachyrhizi, foliar, single active ingredient, 2.25 g/ha, read-out: Observed Activity (%)); 23% in assay [7] (Phakopsora pachyrhizi, foliar, single active ingredient, 2.25 g/ha, soybean, preventative, 100=no disease, read-out: Observed Activity (%)). The inhibition at 4.5 g/ha in assay [7] (Phakopsora pachyrhizi, foliar, applied alone, 4.5 g/ha, read-out: Observed Activity (% of untreated)) is 20%; in assay [7] (Phakopsora pachyrhizi, foliar, single active ingredient, 4.5 g/ha, read-out: Observed Activity (%)), 22%; in assay [7] (Phakopsora pachyrhizi, foliar, single active ingredient, 4.5 g/ha, soybean, preventative, 100=no disease, read-out: Observed Activity (%)), 33%. The inhibition at 1.13 g/ha in assay [7] (Phakopsora pachyrhizi, foliar, single active ingredient, soybean, preventative, 100=no disease, read-out: Observed Activity (%)) amounted to 1%. Further, in assay [7] (Phakopsora pachyrhizi, foliar, single active ingredient, 9 g/ha, read-out: Observed Activity (%)), the inhibition at 9 g/ha was 38%.

With `CO/C=C(\Oc1cc(C2CCCCC2)ccc1C)C(=O)OC` [Compound X.04, methyl (Z)-2-(5-cyclohexyl-2-methyl-phenoxy)-3-methoxy-prop-2-enoate], the inhibition at 0.03 ppm in assay [1] (Colletotrichum orbiculare) came to 0%; in assay [4] (setting [8]) it was 50%; in assay [6] (Septoria glycines), 70%. Besides, the inhibition at 0.00625 ppm is 0% in assay [2] (Mycosphaerella arachidis, 0.00625 ppm); 0% in assay [4] (Zymoseptoria tritici, 0.00625 ppm, 100-0 scale); 0% in assay [6] (Septoria glycines, 0.00625 ppm). Moreover, the inhibition at 0.2 ppm in assay [3] (Corynespora cassiicola, 0.2 ppm) was found to be 20%. For the same compound, the inhibition at 0.025 ppm in assay [4] (Zymoseptoria tritici, 0.025 ppm, 100-0 scale) was 70%; in assay [6] (Septoria glycines, 0.025 ppm), 90%. In addition, the inhibition at 0.1 ppm in assay [4] (Zymoseptoria tritici) came to 70%. For the same compound, the “control (%)” value in assay [5] (20 ppm) is reported as 90%; in assay [5] (60 ppm), 100%; in assay [5] (200 ppm), 100%. In assay [7] (Phakopsora pachyrhizi, foliar, applied alone, read-out: Observed Activity (% of untreated)), the inhibition at 1.13 g/ha stood at 20%. Besides, the inhibition at 18 g/ha in assay [7] (Phakopsora pachyrhizi, foliar, applied alone, 18 g/ha, read-out: Observed Activity (% of untreated)) came to 74%. Further, the “Observed Activity (% of untreated)” value was 22% and 35% and 17% in assay [7] (applied alone, 2.25 g/ha); 67% and 34% and 49% and 53% in assay [7] (applied alone, 4.5 g/ha); 81% and 59% in assay [7] (applied alone, 9 g/ha).

As for `COc1ccnc(C(=O)N[C@@H](C)C(=O)O[C@@H](C)C(c2ccc(F)cc2)c2ccc(F)cc2)c1OC(C)=O` [Florylpicoxamid, reference compound], the “Activity (%)” value stood at 20% in assay [1] (0.1 ppm); 50% in assay [2] (0.01 ppm); 90% in assay [2] (0.02 ppm); 0% in assay [3] (0.02 ppm); 70% in assay [4] (0.01 ppm, 100-0 scale); 90% in assay [4] (0.02 ppm, 100-0 scale). The “Activity (%)” value in assay [6] (0.01 ppm) and in assay [6] (0.02 ppm) was 0% each time.

Regarding `CCC(=O)Oc1c(OC)ccnc1C(=O)N[C@@H](C)C(=O)O[C@@H](C)[C@@H](C)c1ccccc1C` [[(1S,2S)-1-methyl-2-(o-tolyl)propyl] (2S)-2-[(4-methoxy-3-propanoyloxy-pyridine-2-carbonyl)amino]propanoate, reference compound], the inhibition at 0.03 ppm was found to be 70% in assay [2] (Mycosphaerella arachidis); 0% in assay [3] (Corynespora cassiicola, 0.03 ppm); 50% in assay [4] (setting [8]); 0% in assay [6] (Septoria glycines). For the same compound, the inhibition at 0.06 ppm in assay [3] (Corynespora cassiicola, 0.06 ppm) was 0%; in assay [4] (Zymoseptoria tritici, 0.06 ppm, 100-0 scale) it was 70%; in assay [6] (Septoria glycines, 0.06 ppm) it was 0%.

For the origin of these results see patent publication US12532884B2, “Fungicidal compositions” (SYNGENTA CROP PROTECTION AG, priority 2020, dated 2026).
